Reference: patent US6635641B2 (Agouron Pharmaceuticals, Inc., priority 2000, dated 2003)
Structures can show the parent of a compound that is named as a salt. Where two headings read alike, the source gives them in different places.

Legend:
[1] = target: T1, phosphorylated VEGF-R2Δ50 (FLVK-P) (Homo sapiens, UniProt P35968, DEL940-989/E990V); test: VEGF-R2 coupled spectrophotometric assay, phosphorylated construct (FLVK-P); format: biochemical
T1 construct: VEGF-R2Δ50 contains residues 806-939 and 990-1171; made in house; host or cells: baculovirus/insect cells
T1 sequence (P35968 with tags, fused parts or gaps DEL940-989/E990V limits assumed): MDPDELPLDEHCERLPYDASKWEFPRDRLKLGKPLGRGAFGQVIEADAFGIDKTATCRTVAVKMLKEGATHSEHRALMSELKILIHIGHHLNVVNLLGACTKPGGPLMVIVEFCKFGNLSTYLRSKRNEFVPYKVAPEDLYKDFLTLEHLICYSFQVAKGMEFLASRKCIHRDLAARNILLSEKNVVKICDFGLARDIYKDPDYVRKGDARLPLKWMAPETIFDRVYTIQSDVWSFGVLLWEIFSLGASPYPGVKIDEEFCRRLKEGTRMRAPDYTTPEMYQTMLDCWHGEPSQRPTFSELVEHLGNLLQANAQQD
Outline: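 Baculovirus-expressed VEGF-R2Δ50 (residues 806-939/990-1171, E990V), optionally autophosphorylated; ADP formation coupled via PK/LDH to NADH oxidation at 340 nm, pH 7.5 Hepes. FLVK-P: 1 mM ATP, 5.1 mM poly(E4Y1), 25 mM MgCl2; FLVK: 3 mM ATP, 20 mM poly(E4Y1), 60 mM MgCl2, 2 mM MnCl2. Ki from activity over compound concentrations.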

[2] = target: T2, unphosphorylated VEGF-R2Δ50 (FLVK) (Homo sapiens, UniProt P35968, DEL940-989/E990V); test: VEGF-R2 coupled spectrophotometric assay, unphosphorylated construct (FLVK); format: biochemical;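 also: Baculovirus-expressed cytosolic kinase domain, ADP formation linked via pyruvate kinase and lactate dehydrogenase to NADH oxidation, read as falling absorbance at 340 nm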
T2 construct: VEGF-R2Δ50 contains residues 806-939 and 990-1171; made in house; host or cells: baculovirus/insect cells
T2 sequence (P35968 with tags, fused parts or gaps DEL940-989/E990V limits assumed): as above

CDK2/Cyclin A complex = CDK2/Cyclin A complex (Homo sapiens, UniProt P24941); test: CDK2/Cyclin A assay ([32P]ATP incorporation into Rb fragment); format: biochemical; details: μM
Method: CDK2 was purified using published methodology (Rosenblatt et al., J. Mol. Biol., 230, 1317-1319 (1993)) from insect cells that had been infected with a baculovirus expression vector. Cyclin A was purified from E. coli cells expressing full-length recombinant cyclin A, and a truncated cyclin A construct was generated by limited proteolysis and purified as described previously (Jeffrey et al., Nature, 376, 313-320 (1995)).
Cyclin-dependent kinase activity was measured by quantifying the enzyme-catalyzed, time-dependent incorporation of radioactive phosphate from [^32P]ATP into a recombinant fragment of the retinoblastoma protein. Unless noted otherwise, assays were performed in 96-well plates in a total volume of 50 μL, in the presence of 10 mM HEPES (N-[2-hydroxyethyl]piperazine-N′-[2-ethanesulfonic acid]) (pH 7.4), 10 mM MgCl2, 25 μM adenosine triphosphate (ATP), 1 mg/mL ovalbumin, 5 μg/mL leupeptin, 1 mM dithiothreitol, 10 mM β-glycerophosphate, 0.1 mM sodium vanadate, 1 mM sodium fluoride, 2.5 mM ethylene glycol-bis(β-aminoethyl ether)-N,N,N′N′-tetraacetic acid (EGTA), 2% (v/v) dimethylsulfoxide, and 0.03-0.2 μCi [^32P]ATP. The substrate (0.3-0.5 μg) was purified recombinant retinoblastoma protein fragment (Rb) (residues 386-928 of the native retinoblastoma protein; 62.3 kDa, containing the majority of the phosphorylation sites found in the native 106-kDa protein, as well as a tag of six histidine residues for ease of purification). Reactions were initiated with CDK2 (150 nM CDK2/Cyclin A complex) or CDK4 (50 nM CDK4/Cyclin D3 complex), incubated at 30° C., and terminated after 20 minutes by the addition of ethylenediaminetetraacetic acid (EDTA) to 250 mM. The phosphorylated substrate was then captured on a nitrocellulose membrane using a 96-well filtration manifold, and unincorporated radioactivity was removed by repeated washing with 0.85% phosphoric acid. Radioactivity was quantified by exposing the dried nitrocellulose membranes to a phosphorimager. Apparent Ki values were measured by assaying enzyme activity in the presence of different compound concentrations and subtracting the background radioactivity measured in the absence of enzyme. The kinetic parameters (kcat, Km for ATP) were measured for each enzyme under the usual assay conditions by determining the dependence of initial rates on ATP concentration. The data were fit to an equation for competitive inhibition using Kaleidagraph (Synergy Software), or were fit to an equation for competitive tight-binding inhibition using the software KineTic (BioKin, Ltd.). Measured Ki values for known inhibitors against CDK4 and CDK2 agreed with published IC50 values. […]

CDK4/Cyclin D3 complex = target: T3, CDK4/Cyclin D3 complex (Homo sapiens, UniProt P11802); test: CDK4/Cyclin D assay ([32P]ATP incorporation into Rb fragment); format: biochemical; details: μM
T3 construct: made in house; host or cells: insect cells co-infected with baculovirus vectors
T3 sequence (P11802 whole entry, the tested form may be a part): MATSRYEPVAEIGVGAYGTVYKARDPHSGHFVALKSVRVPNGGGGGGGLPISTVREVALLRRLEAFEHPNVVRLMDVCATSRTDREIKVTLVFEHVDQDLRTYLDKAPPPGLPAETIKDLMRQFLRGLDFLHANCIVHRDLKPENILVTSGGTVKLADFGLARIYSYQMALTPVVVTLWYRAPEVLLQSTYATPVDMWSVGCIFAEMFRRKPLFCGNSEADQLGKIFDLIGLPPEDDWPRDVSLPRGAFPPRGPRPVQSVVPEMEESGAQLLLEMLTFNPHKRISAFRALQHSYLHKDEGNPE
T3 sequence (P30281 whole entry partner, the tested form may be a part): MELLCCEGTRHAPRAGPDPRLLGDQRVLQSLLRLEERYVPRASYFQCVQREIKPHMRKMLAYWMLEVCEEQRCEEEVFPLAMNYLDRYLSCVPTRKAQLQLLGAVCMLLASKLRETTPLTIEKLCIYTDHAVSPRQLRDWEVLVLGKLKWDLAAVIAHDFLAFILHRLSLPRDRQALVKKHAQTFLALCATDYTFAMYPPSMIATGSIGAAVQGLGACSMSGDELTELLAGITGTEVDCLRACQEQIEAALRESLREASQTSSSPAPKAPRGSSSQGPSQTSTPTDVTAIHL
Method: A complex of human CDK4 and cyclin D3, or a complex of cyclin D1 and a fusion protein of human CDK4 and glutathione-S-transferase (GST-CDK4), was purified using traditional biochemical chromatographic techniques from insect cells that had been co-infected with the corresponding baculovirus expression vectors.
Cyclin-dependent kinase activity was measured by quantifying the enzyme-catalyzed, time-dependent incorporation of radioactive phosphate from [^32P]ATP into a recombinant fragment of the retinoblastoma protein. Unless noted otherwise, assays were performed in 96-well plates in a total volume of 50 μL, in the presence of 10 mM HEPES (N-[2-hydroxyethyl]piperazine-N′-[2-ethanesulfonic acid]) (pH 7.4), 10 mM MgCl2, 25 μM adenosine triphosphate (ATP), 1 mg/mL ovalbumin, 5 μg/mL leupeptin, 1 mM dithiothreitol, 10 mM β-glycerophosphate, 0.1 mM sodium vanadate, 1 mM sodium fluoride, 2.5 mM ethylene glycol-bis(β-aminoethyl ether)-N,N,N′N′-tetraacetic acid (EGTA), 2% (v/v) dimethylsulfoxide, and 0.03-0.2 μCi [^32P]ATP. The substrate (0.3-0.5 μg) was purified recombinant retinoblastoma protein fragment (Rb) (residues 386-928 of the native retinoblastoma protein; 62.3 kDa, containing the majority of the phosphorylation sites found in the native 106-kDa protein, as well as a tag of six histidine residues for ease of purification). Reactions were initiated with CDK2 (150 nM CDK2/Cyclin A complex) or CDK4 (50 nM CDK4/Cyclin D3 complex), incubated at 30° C., and terminated after 20 minutes by the addition of ethylenediaminetetraacetic acid (EDTA) to 250 mM. The phosphorylated substrate was then captured on a nitrocellulose membrane using a 96-well filtration manifold, and unincorporated radioactivity was removed by repeated washing with 0.85% phosphoric acid. Radioactivity was quantified by exposing the dried nitrocellulose membranes to a phosphorimager. Apparent Ki values were measured by assaying enzyme activity in the presence of different compound concentrations and subtracting the background radioactivity measured in the absence of enzyme. The kinetic parameters (kcat, Km for ATP) were measured for each enzyme under the usual assay conditions by determining the dependence of initial rates on ATP concentration. The data were fit to an equation for competitive inhibition using Kaleidagraph (Synergy Software), or were fit to an equation for competitive tight-binding inhibition using the software KineTic (BioKin, Ltd.). Measured Ki values for known inhibitors against CDK4 and CDK2 agreed with published IC50 values. The specific activity of CDK4 was the same whether complexed to full-length cyclin D3 or the truncated Cyclin D3 construct; both complexes also yielded very similar Ki values for selected inhibitors.

[3] = test system: human umbilical vein endothelial cells (HUVEC); test: HUVEC proliferation assay (VEGF-stimulated, MTT); format: cell-based; details: Homo sapiens, HUVEC
Outline: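 Exponentially growing HUVEC (passage 3-4) were serum-starved 24 h in F12K + 1% FBS, given test compound (final DMSO 0.1%), then stimulated 1 h later with VEGF at 6 ng/ml final. Proliferation read after 72 h by 4 h MTT dye reduction, absorbance at 595.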

[4] = test system: lung cancer cells (line MV522); test: Cancer cell proliferation (MV522) assay (MTT); format: cell-based; details: MV522
Outline: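 Proliferation was read by MTT reduction 72 h after compound addition, in a 4-day protocol with no starvation step. Two thousand MV522 cells were seeded in RPMI1640 with 10% FBS and 2 mM glutamine and given 1 day to attach before dosing.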

[5] = target: T4, FGF-R1 intracellular kinase domain (Homo sapiens, UniProt P11362, C488A/C584S/L457V); test: FGF-R spectrophotometric assay; format: biochemical; details: read-out: FGF-P Ki
T4 construct: starting from the endogenous methionine residue 456 to glutamate 766; made in house; host or cells: baculovirus expression system
T4 sequence (P11362 456-766 L457V/C488A/C584S): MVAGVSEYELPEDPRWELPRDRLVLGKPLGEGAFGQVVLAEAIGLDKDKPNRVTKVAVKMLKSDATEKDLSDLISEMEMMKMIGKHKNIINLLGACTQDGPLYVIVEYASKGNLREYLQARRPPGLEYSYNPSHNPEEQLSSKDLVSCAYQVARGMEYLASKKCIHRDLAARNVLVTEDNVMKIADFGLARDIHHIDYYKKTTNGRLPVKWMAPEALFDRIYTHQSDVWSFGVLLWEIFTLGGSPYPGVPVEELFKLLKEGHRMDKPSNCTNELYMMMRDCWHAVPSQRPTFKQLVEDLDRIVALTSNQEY

LCK tyrosine kinase = target: T5, LCK tyrosine kinase (Homo sapiens, UniProt P06239, C224D/P223M); test: LCK spectrophotometric assay; format: biochemical; details: read-out: LCK-P Ki;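 also: recombinant LCK kinase activity on poly(E4Y1), ADP formation coupled through PK/LDH to NADH oxidation, followed as absorbance loss at 340 nm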
T5 construct: starting from amino acid residue 223 to the end of the protein at residue 509; made in house; host or cells: insect cells
T5 sequence (P06239 223-509 P223M/C224D): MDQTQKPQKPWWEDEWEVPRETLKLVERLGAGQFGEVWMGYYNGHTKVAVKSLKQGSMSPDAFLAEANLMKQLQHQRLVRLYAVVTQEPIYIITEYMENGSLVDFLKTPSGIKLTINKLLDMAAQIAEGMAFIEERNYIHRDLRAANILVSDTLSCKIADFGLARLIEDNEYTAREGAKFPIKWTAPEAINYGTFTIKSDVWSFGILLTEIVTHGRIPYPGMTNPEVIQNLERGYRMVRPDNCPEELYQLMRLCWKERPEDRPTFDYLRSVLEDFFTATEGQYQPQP

[6] = target: T6, TEK/Tie-2 intracellular kinase domain (Homo sapiens, UniProt Q02763); test: TEK/Tie-2 spectrophotometric assay; format: biochemical; details: read-out: TEK-P percent inhibition
T6 construct: residues 775 to 1124, with methionine added at the N-terminus; made in house; host or cells: baculovirus expression system
T6 sequence (Q02763 775-1124): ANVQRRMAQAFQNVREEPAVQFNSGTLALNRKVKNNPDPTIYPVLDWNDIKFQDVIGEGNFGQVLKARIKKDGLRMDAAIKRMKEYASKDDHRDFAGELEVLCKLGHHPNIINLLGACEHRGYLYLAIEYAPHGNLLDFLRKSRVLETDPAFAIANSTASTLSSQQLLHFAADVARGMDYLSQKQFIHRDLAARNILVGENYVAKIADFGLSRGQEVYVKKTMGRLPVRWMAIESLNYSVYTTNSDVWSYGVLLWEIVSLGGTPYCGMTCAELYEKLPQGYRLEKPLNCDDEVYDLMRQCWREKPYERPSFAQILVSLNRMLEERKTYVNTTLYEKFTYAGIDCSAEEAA
Method: The intracellular kinase domain (residues 775 to 1124, with methionine added at the N-terminus) of human TEK/Tie-2 was expressed using the baculovirus vector expression system. For assay purposes, the enzyme was autophosphorylated prior to use by incubation overnight at 4° C., at 10 μM enzyme concentration, with 4 mM ATP, 40 mM MgCl2, and 5 mM DTT in 200 mM Hepes buffer at ph 7.5, in 90:10 water:glycerol.
The production of ADP from ATP that accompanies phosphoryl transfer was coupled to oxidation of NADH using phosphoenolpyruvate (PEP) and a system having pyruvate kinase (PK) and lactic dehydrogenase (LDH). The oxidation of NADH was monitored by following the decrease of absorbance at 340 nm (e340=6.22 cm^−1 mM^−1) using a Beckman DU 650 spectrophotometer. Assay conditions for phosphorylated VEGF-R2Δ50 (indicated as FLVK-P in the tables below) were the following: 1 mM PEP; 250 μM NADH; 50 units of LDH/mL; 20 units of PK/mL; 5 mM DTT; 5.1 mM poly(E4Y1); 1 mM ATP; and 25 mM MgCl2 in 200 mM Hepes, pH 7.5. Assay conditions for unphosphorylated VEGF-R2Δ50 (indicated as FLVK in the tables) were the following: 1 mM PEP; 250 μM NADH; 50 units of LDH/mL; 20 units of PK/mL; 5 mM DTT; 20 mM poly(E4Y1); 3 mM ATP; and 60 mM MgCl2 and 2 mM MnCl2 in 200 mM Hepes, pH 7.5. Assays were initiated with 5 to 40 nM of enzyme. Ki values were determined by measuring enzyme activity in the presence of varying concentrations of test compounds. The data were analyzed using Enzyme Kinetic and Kaleidagraph software.
The spectrophotometric assay was carried out as described above for VEGF-R2, except for the following changes in concentration: TEK/Tie-2=200 nM, MgCl2=40 mM, and ATP=2 mM.

FL-CHK-1 = target: T7, FL-CHK-1 (Homo sapiens, UniProt O14757); test: CHK-1 coupled spectrophotometric assay (Syntide-2); format: biochemical
T7 construct: C-terminally His-tagged full-length human CHK-1 (FL-CHK-1); made in house; host or cells: baculovirus/insect cells
T7 sequence (O14757 1-476): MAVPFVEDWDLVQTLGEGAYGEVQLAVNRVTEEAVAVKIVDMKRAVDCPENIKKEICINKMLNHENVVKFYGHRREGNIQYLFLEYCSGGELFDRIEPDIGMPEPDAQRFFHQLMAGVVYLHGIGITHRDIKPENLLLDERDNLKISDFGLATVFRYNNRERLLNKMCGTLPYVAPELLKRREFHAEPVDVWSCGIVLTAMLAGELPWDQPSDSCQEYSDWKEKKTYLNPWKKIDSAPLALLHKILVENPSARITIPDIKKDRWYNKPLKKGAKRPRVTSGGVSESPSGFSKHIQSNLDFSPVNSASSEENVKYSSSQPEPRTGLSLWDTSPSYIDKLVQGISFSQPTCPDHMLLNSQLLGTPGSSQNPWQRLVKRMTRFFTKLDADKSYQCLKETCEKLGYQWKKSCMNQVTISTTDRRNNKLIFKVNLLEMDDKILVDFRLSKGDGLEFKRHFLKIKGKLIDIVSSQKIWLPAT
Description: C-terminally His-tagged full-length human CHK-1 (FL-CHK-1) was expressed using the baculovirus/insect cell system. It contains 6 histidine residues (6×His-tag) at the C-terminus of the 476 amino acid human CHK-1. The protein was purified by conventional chromatographic techniques.
The production of ADP from ATP that accompanies phosphoryl transfer to the synthetic substrate peptide Syntide-2 ([…]) was coupled to oxidation of NADH using phosphoenolpyruvate (PEP) through the actions of pyruvate kinase (PK) and lactic dehydrogenase (LDH). The oxidation of NADH was monitored by following the decrease of absorbance at 340 nm (ε340=6.22 cm−1 mM^−1) using a HP8452 spectrophotometer. Typical reaction solutions contained: […]; 0.15 mM NADH; 28 units of LDH/ml; 16 units of PK/ml; 3 mM DTT; 0.125 mM Syntide-2; 0.15 mM ATP; 25 mM MgCl2 in 50 mM TRIS, pH 7.5; and 400 mM NaCl. Assays were initiated with 10 nM of FL-CHK-1. Ki values were determined by measuring initial enzyme activity in the presence of varying concentrations of test compounds. The data were analyzed using Enzyme Kinetic and Kaleidagraph software.

[7] = with albumin, read-out: Huvec + Albumin IC50

SMILES | Ki [1] | Ki [2] | Ki (CDK2/Cyclin A complex) | Ki (CDK4/Cyclin D3 complex) | IC50 ([3]; read-out: HUVEC IC50) | IC50 [4] | melting point | Ki [5] | Ki (LCK tyrosine kinase) | inhibition at 1 µM [6] | IC50 [3, 7] | Ki (FL-CHK-1)
COc1cc(NC(=O)c2cccc(SCc3cc(Nc4ccccc4)n[nH]3)c2)cc(OC)c1OC [Example E-2] | 4.79 nM | 0.95 nM | > 100 µM | > 100 µM | 55 nM | > 10000 nM | 67 to 69 °C | – | – | – | – | –
COc1ccc(Nc2cc(CCc3cccc(C(=O)Nc4cc(Cl)c(N(C)C)c(Cl)c4)c3)[nH]n2)cn1 [Example G-7, N-(3,5-Dichloro-4-dimethylaminophenyl)-3-{2-[5-(6-methoxy-pyridin-3-yl)amino-2H-pyrazol-3-yl]ethyl}benzamide] | 0.65 nM | 0.25 nM | – | – | 17 nM | > 10000 nM | – | 23 nM | 27 nM | 14% | 190 nM | –
COc1ccc(Nc2cc(CCc3cccc(C(=O)Nc4ccc(N5CCCC5)c(C(F)(F)F)c4)c3)[nH]n2)cn1 [Example G-8, 3-{2-[5-(6-Methoxypyridin-3-yl)amino-2H-pyrazol-3-yl]-ethyl}-N-(4-pyrrolidin-1-yl-3-trifluoromethylphenyl)benzamide] | 0.73 nM | 0.035 nM | – | – | 12 nM | 8700 nM | – | 20 nM | 5.8 nM | 62% | 114 nM | –
Cc1ccc2cc(NC(=O)c3cccc(OCc4cncc5ccccc45)c3)ccc2n1 [Example K-3, 3-(Isoquinolin-4-yl)methoxy-N-(2-methyl-quinolin-6-yl)-benzamide hydrochloride] | 1.66 nM | 3.4 nM | – | – | 430 nM | > 10000 nM | – | – | – | – | – | 26000 nM
